Assay [1] has as its system Passive cutaneous anaphylaxis (P.C.A.). Briefly: Inhibition of passive cutaneous anaphylaxis (P.C.A.). It counts as in vivo, rat (Sprague-Dawley). Conditions: Rattus norvegicus, 1 h; rats, 2 × 10^-5 mol/kg p.o., one hour before ovalbumin challenge. Here is the method: (§1) 1. Determination of the inhibition of passive cutaneous anaphylaxis (P.C.A.) and of the anaphylactoid cutaneous reaction induced by histamine.
The P.C.A. reaction was carried out according to the methods described by Goose et al. (J.N. Immunology 16 (1969), 749) and by Martin et al (Arch. Pharmacol. 316 (1981), 186}.
The IgE-rich ovalbumin antiserum used in the test was obtained from immunized Brown-Norway rats. For immunization, the rats were given an i.p. injection of a mixture of 100 μg of ovalbumin with a Bordetella pertussis suspension (Vaxicoq®, Manufacturer: Institut Merieux, containing 5×10^9 organisms and 1.25 mg of Al(OH)3). After 20 days, the animals received a further i.p. injection of a solution of 10 μg of ovaIbumin in 0.5 ml of physiological saline solution for reimmunisation. After a further four days, the animals were bled, and the blood was centrifuged The antiserum obtained in this way was stored at -20° C. until use.
(§2) The determination of the inhibition of passive cutaneous anaphylaxis and the anaphylactoid cutaneous reaction induced by histamine was carried out as follows:
Sprague-Dawley rats having a body weight of 150-180 g were injected intradermally in one flank with 50 μl of a 1:75 dilution of the IgE-rich ovalbumin antiserum in physiological sodium chloride solution for passive sensitization to ovalbumin.
24 hours after sensitization a solution of 8.25 mg/kg of ovalbumin and 26.4 mg/kg of a blue dye (Evans' Blue) was administered i.v. to the rats according to Martin et al. to induce passive cutaneous anaphylaxis. The ovalbumin challenge caused a local anaphylactic reaction at the site at which the antiserum had been injected.
(§3) On the test days, the test substances were dissolved in distilled water which contained 1% by volume of dimethylformamide and 1% by volume of Tween®20 (polyoxyethylene(20) sorbitan monolaurate). One hour before the challenging ovalbumin administration, each animal received 2×10^-5 mol/kg of test substance administered orally in 0.5 ml of solution. A control group received only the solvent for comparison.
(§4) The oedematous anaphylactic (P.C.A.) and anaphylactoid (histamine-induced) reactions caused by the challenging i.v. ovalbumin injection, which are manifested by oedema formation, swelling and exudation of blue dye, were evaluated 30 minutes after challenge by the i.v. ovalbumin injection. This was done by visual determination of the extent to which the blue dye emerges at the sites of oedema formation. The percentage inhibition of anaphylactic and anaphylactoid reactions caused by the test substances was determined in comparison with the reactions of the control animals not treated with test substance with the aid of comparison scales.
(§5) The results obtained by the above test methods using compounds of the formula I are shown in the following Table A. The example numbers given for the compounds of formula I relate to the following preparation examples.

Assay [2] deals with Histamine-induced anaphylactoid reactions. Kind of assay: Inhibition of anaphylactoid cutaneous reaction induced by histamine. Type of assay: in vivo, rat (Sprague-Dawley). Conditions: Rattus norvegicus, 1 h; rats, 2 × 10^-5 mol/kg p.o., one hour before challenge; histamine intradermal. As to the method: as §1, §2
To determine the histamine-induced anaphylactoid skin reaction, the animals were injected intradermally in the flank opposite to the antiserum administration with 50 μl of a physiological saline solution containing 0.8 mg/ml of histamine directly before the i.v. injection of the solution containing the ovalbumin and the blue dye.
as §3, §4, §5

In assay [3] the target is T1, histamine (H1) receptor (Cavia porcellus, UniProt P31389).
T1 construct: isolated smooth muscle of the guinea-pig ileum; from tissue; host or cells: isolated ileum segments of Dunkin Hartley guinea-pigs
Briefly: Antihistamine (H1) effect: inhibition of histamine-induced contractions of isolated guinea-pig ileum in vitro. The conditions noted are these: histamine 5 × 10^-6 mol/l, test substance 10^-6 mol/l. Type of assay: cell-based, guinea-pig (Dunkin Hartley). As to the method: 3. Investigation of the antihistamine (H1) effect based on histamine (H1) receptor antagonism in vitro.
To investigate the histamine (H1) receptor antagonism of the substances, the inhibitory effect thereof on histamine-induced contractions of the smooth musculature of isolated organ was determined in vitro. Isolated strips of organ from the ileum were used. In an organ bath of physiological saline solution, they react to addition of histamine by contracting. Addition of the compounds of the invention decreases this histamine-induced contraction of the smooth musculature of the ileum strips. The extent of decrease of the contraction is an indication of the antihistamine (H1) activity of the compounds. The investigation is carried out analogously to the method originally described by Magnus (Pflugers Arch. 102, 123 (1904)).
Experimental description of the determination of the inhibitory effect on the contraction induced by a 5×10^-6 molar histamine concentration on isolated smooth muscle of the guinea-pig ileum.
For the test, 1.5 cm long segments of the ileum from Dunkin Hartley guinea-pigs having a body weight of 300-500 g were employed. Each strip was placed in an organ bath of 10 ml of Krebs-Henseleit physiological saline solution and attached to a customary apparatus for isotonically measuring changes in length of the ileum strip (automated Celaster measuring apparatus) so that the tissue is under a tension of 1 g. The bath was kept at a pH of 7.4 and aerated with a mixture of 5% CO2 and 95% O2. After an equilibration phase, an isotonic contraction of the tissue was produced by adding histamine in a final concentration of 5×10^-6 mol/l and was washed out again after a contact time of 30 seconds. Only those tissues in which three reproducible contractions were obtained at 10 minute intervals were used in the subsequent test. The test substances were then added in a final concentration of 10^-6 mol/l, and after a contact time of 30 seconds histamine was again added up to a concentration of 5×10^-6 mol/l. The contractions which occurred were measured over the course of 30 seconds. The tissue was then washed several times over a period of 10 minutes. A contraction challenge was then induced again by addition of histamine. The contractions which occurred were again measured over 30 seconds. The difference between the amplitude of the contraction obtained by histamine addition alone and the amplitude of the contraction obtained in the presence of the test substance was determined and calculated as % inhibition.
The inhibitory effects on the contractions induced by histamine 30 seconds after administration of the test substance and on the contractions induced by addition of histamine 10 minutes afterward are given in the table.

In assay [4] the test system is P.A.F.-induced aggregation of platelets from rabbit blood. Briefly: Anti-P.A.F. effect in vitro: inhibition of P.A.F.-induced platelet aggregation. Type of assay: cell-based, rabbit (New Zealand hybrids). The conditions noted are these: Oryctolagus cuniculus, Platelet, test substance concentration 10^-5 mol/l. The source says: 4. Determination of anti-P.A.F. effect in vitro.
Platelet-activating factor (P.A.F.) is a phospholipid mediator which has several effects. The activation of platelet aggregation leads to the induction of protracted broncho contractions and hyperreactivity of the airways.
The effects of the test substances on platelet aggregation induced by adding P.A.F. to a platelet suspension obtained from rabbit blood was investigated by the method described by Mikashima et al. (Jap. J. Pharmacol. 44 (1987) 387-391).
A suspension of platelets originating from rabbit blood was used which contained 4×10^9 platelets/ml in a modified Tyrode buffer solution adjusted to pH 7.4. Tyrode solution is an aqueous solution containing 136.9 mmol of NaCl, 2.68 mmol of KCl, 2.31 mmol of CaCl2, 1.0 mmol of MgCl2, 11.9 mmol of NaHCO3, 1.45 mmol of NaH2 PO4 and 5.55 mmol of glucose per liter. This solution was modified by adding 1.3 mM/l of CaCl2 and 2.5 g/l of gelatin. The platelets were obtained from 10 ml blood samples from each of three rabbits (New Zealand hybrids, body weight 3-4 kg). For this, the blood samples were treated with ethylenediaminetetraacetic acid and washed by the method of Artley et al. (Brit. J. Hamatol. 19 (1970), 7-17). A platelet-rich plasma was then initially separated by centrifugation (20 minutes at 400×g). The platelets were separated from the plasma by centrifuging again for 15 minutes at 1400×g. After centrifuging, the platelets remaining as a sediment were resuspended in a calcium-free Tyrode buffer solution. 0.4 mmol of lysine acetylsalicylate were then added and after 15 minutes the blood platelets were sedimented again. The sediment was resuspended in the abovementioned modified Tyrode buffer solution, and the number of platelets in the resulting suspension was adjusted to the desired content.
A 40×10^-9 molar P.A.F. solution was used as the reagent. This solution was prepared from a 1.8×10^-3 molar stock solution in chloroform. For this, a 10μl sample of the stock solution was evaporated to dryness and redissolved in 180 μl of the modified Tyrode solution, to which 0.25% of dilapidated bovine serum albumin had been added. 10^-5 molar working solutions were then prepared from this and stored frozen. Samples of these solutions were appropriately diluted for the tests.
To carry out the tests, 50 μl of the platelet solution and 10 μl of a 40×10^-5 molar solution of the compound to be investigated were added to 330 μl of the modified Tyrode buffer solution with stirring (1000 rpm) in an aggregation tube provided with a small magnetic stirrer. This corresponds to a final test substance concentration of 10^-5 mol/l. After a preincubation time of 90seconds, 10 μl of the P.A.F. preparation were added. The aggregation occurring in the aggregation tubes was measured for 4-5 minutes using a computerized aggregometer.
The aggregation occurring in the test tubes containing only platelet suspension was rated as 0%. The aggregation occurring in test tubes containing platelet suspension and P.A.F. preparation was rated as 100%. The aggregation which still occurred in the presence of the test substances (i.e. during inhibition of the P.A.F.-induced platelet aggregation increase) was measured, and the resulting aggregation inhibition is calculated from this in %.

Setting [5] is: after 30 sec., read-out: in vitro (H1) receptor antagonism % inhibitory effect on histamine-induced contractions of the Ileum, after 30 sec.
Where [6] appears, read: after 10 min. (after washing), read-out: in vitro (H1) receptor antagonism % inhibitory effect on histamine-induced contractions of the Ileum, after 10 min.

Where two headings read alike, the source gives them in different places.

T1 sequence (P31389 whole entry): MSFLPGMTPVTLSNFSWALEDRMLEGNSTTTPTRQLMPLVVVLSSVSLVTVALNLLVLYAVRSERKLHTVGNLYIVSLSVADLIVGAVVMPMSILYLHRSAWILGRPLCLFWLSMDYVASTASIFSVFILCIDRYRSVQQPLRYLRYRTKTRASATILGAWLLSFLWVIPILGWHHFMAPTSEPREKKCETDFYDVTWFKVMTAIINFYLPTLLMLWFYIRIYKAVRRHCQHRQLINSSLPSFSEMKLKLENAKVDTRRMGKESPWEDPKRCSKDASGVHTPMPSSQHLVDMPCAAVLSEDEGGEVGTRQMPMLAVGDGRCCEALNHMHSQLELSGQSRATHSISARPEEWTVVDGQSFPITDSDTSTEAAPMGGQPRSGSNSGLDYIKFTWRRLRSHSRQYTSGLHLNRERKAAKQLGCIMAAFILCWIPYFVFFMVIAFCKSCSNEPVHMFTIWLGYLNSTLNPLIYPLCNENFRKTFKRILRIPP

As a reminder, the inhibition in vivo is the relative decrease from the control value, in per cent. Regarding `Cc1ccnc(N2CCN(CCc3c(C)n4c5c(cccc35)S(=O)(=O)CC4)CC2)c1` [Example 28b, 2,3-dihydro-5-methyl-6-{2-[4-(4-methylpyridin-2-yl)-piperazin-1yl]ethyl}-pyrrolo[1,2,3-de]-1,4-benzothiazine-1,1-dioxide], the inhibition in vivo at 20 µmol/kg in assay [1] stood at 100%; in assay [2], 85%. Moreover, the inhibition at 1 µM stood at 6% in assay [3] (setting [5]) and 14% in assay [3] (setting [6]).

On to `Cc1ccnc(N2CCN(CCc3c(-c4ccc(Cl)cc4)n4c5c(cccc35)CCC4)CC2)c1` [Example 46], for which the inhibition in vivo at 20 µmol/kg in assay [1] stood at 35%; in assay [2], 25%. In assay [4], this compound displayed an inhibition at 10 µM of 91%.

With `COc1cccc(N2CCN(CCc3c(C)n4c5c(cccc35)CCC4)CC2)c1` [Example 48], the results for the inhibition in vivo at 20 µmol/kg in assay [1] and in assay [2] were 25% and 35%, respectively. For the same compound, the inhibition at 1 µM stood at 35% in assay [3] (setting [5]) and 48% in assay [3] (setting [6]).

As for `Cc1cccc(N2CCN(CCc3c(C)n4c5c(cccc35)CCC4)CC2)n1` [Example 50], the values for the inhibition in vivo at 20 µmol/kg in assay [1] and in assay [2] were 60% and 50%, respectively. Also, the inhibition at 1 µM in assay [3] (setting [5]) amounted to 24%; in assay [3] (setting [6]), 50%.

Source of the values: patent US5324725A, “7-fused 2-(piperazinoalkyl) indole derivatives, intermediates and compositions thereof” (Kali-Chemie Pharma GmbH, priority 1991, dated 1994).
